Where two headings read alike, the source gives them in different places.
Assays:
PCP receptor = assay: Experiment of binding to PCP receptor: competitive binding with [3H] MK-801, rat cerebral cortex membrane preparation; details: for IC50: [3H] MK-801 2 nM, rat cerebral cortex membranes
Method: Experiment of Binding to PCP Receptor
MK-801 is reported to bind to PCP receptor and cause psychosis.
(§1) Male Slc: Wistar rats were used and after beheading of the rats, the brains were picked out and the cerebral cortex was fractionated. The cerebral cortex was homogenized with ice-cooled 5 mM Tris-HCl buffer (pH 7.8) in an amount 20 times as much and centrifuged at 4° C. and 27,500×g for 10 minutes. The obtained precipitate was suspended with the same buffer solution and again centrifuged. These steps were repeated three times and the obtained precipitate was suspended with the buffer solution and stored at −80° C. Immediately before the experiment, the stored suspension was thawed at room temperature and centrifuged at 4° C. and 27,500×g for 10 minutes and the obtained precipitate was suspended with the buffer solution. Further the resulting solution was diluted 2.5 times with the buffer solution and the obtained solution was used as a membrane preparation for the experiment.
For the binding experiment, 10 μL of test compounds with different concentrations and 10 μL of marked ligand [^3H] MK-801 were added to 480 μL of the above-mentioned membrane preparation sample and incubated at 25° C. for 60 minutes. The final concentration of [^3H] MK-801 was adjusted to be 2 nM. DMSO, which is a solvent, was used for measurement of the total binding quantity and 10 μM of (+)MK-801 was used for measurement of the non-specific binding quantity. After the incubation, the bonded bodies and the free bodies were separated by Whatman GF/C filter paper (manufactured by Whatman Inc.) and the filter paper was washed four times with 2.5 mL of the ice-cooled buffer solution. The filter paper was immersed in a liquid scintillation in a vial (Clear-Sol I, manufactured by Nacalai Tesque Co., Ltd.) and the radiation dose (dpm) was measured by a liquid scintillation counter. The binding inhibition ratio (%) was calculated from the measured values according to the following equation and the dose for inhibiting 50% binding (IC50) was calculated.
(§2) Binding inhibition ratio (%)=100−[(binding quantity in the presence of the test compound−non-specific binding quantity)/(total binding quantity−non-specific binding quantity)]×100

NR1/NR2B receptor [1] = target: T1, NR1/NR2B receptor (Rattus norvegicus, UniProt P35439+Q00960); assay: Experiment of binding to NMDA receptor: competitive binding with [3H]-Ifenprodil, rat cerebral cortex membrane preparation; details: [3H]-Ifenprodil 5 nM, GBR-12909 3 μM, rat cerebral cortex membranes
T1 construct: the obtained solution was used as a membrane preparation for the experiment; from tissue; host or cells: rat cerebral cortex membrane preparation
T1 sequence (Q00960 27-1482, other chains not shown): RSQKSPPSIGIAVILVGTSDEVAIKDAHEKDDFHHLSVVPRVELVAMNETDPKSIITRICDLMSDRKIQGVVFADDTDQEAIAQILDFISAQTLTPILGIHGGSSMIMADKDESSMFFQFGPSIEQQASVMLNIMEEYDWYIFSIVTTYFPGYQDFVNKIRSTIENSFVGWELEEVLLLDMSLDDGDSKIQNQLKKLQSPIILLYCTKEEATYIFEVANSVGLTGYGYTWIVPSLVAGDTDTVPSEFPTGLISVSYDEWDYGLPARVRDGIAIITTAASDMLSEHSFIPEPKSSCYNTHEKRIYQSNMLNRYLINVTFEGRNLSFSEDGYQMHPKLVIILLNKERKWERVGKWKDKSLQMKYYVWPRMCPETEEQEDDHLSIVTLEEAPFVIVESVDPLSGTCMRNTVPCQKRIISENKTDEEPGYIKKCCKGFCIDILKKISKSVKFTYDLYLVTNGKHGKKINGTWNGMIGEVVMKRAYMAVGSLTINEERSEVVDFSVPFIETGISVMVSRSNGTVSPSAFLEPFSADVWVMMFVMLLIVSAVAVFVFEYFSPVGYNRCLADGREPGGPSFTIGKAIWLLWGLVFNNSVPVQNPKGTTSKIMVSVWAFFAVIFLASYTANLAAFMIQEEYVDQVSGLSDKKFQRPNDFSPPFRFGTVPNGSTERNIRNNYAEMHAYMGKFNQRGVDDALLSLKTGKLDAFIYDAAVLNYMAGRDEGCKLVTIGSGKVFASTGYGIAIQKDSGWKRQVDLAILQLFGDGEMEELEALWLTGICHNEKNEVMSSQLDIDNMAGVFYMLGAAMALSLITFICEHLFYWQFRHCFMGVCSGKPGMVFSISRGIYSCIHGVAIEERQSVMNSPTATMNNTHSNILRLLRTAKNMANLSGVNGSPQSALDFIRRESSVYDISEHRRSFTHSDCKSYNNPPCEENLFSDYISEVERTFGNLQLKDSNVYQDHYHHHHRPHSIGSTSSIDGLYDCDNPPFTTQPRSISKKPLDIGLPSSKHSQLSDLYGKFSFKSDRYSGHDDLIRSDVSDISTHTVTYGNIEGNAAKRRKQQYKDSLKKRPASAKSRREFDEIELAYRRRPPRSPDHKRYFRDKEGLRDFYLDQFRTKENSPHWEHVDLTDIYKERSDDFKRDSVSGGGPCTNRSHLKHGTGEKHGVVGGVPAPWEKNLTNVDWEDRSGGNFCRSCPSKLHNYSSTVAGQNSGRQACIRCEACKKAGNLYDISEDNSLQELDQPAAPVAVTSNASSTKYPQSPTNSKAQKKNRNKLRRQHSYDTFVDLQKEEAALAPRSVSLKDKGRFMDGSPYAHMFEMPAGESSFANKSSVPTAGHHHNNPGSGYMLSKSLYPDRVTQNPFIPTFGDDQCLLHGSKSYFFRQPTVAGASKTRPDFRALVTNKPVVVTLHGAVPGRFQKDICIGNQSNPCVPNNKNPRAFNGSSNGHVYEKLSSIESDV
Method: Experiment of Binding to NMDA Receptor
Competitive binding assays of the test compounds (10, 18 and 19) were carried out using Ifenprodil, which is an antagonist specific for the NR1/NR2B subtype receptor, as a ligand.
as §1, with “were killed by beheading,” for “were used and after beheading of the rats,”, “ice-cooled 50” for “ice-cooled 5”, “(pH 7.4)” for “(pH 7.8)”, “times of the cerebral cortex” for “times as much”, “diluted 10” for “diluted 2.5”
For the binding experiment, 10 μL of test compounds with different concentrations, 10 μL of [^3H]-Ifenprodil, and 10 μL GBR-12909 were added to 470 μL of the above-mentioned membrane preparation and incubated at icing temperature for 120 minutes. The final concentration of [^3H]-Ifenprodil was adjusted to be 5 nM and the final concentration of GBR-12909 was adjusted to be 3 μM. DMSO, which is a solvent, was used for measurement of the total binding quantity and 100 μM of Ifenprodil was used for measurement of the non-specific binding quantity. In this connection, GBR-12909 was added to block the binding of [^3H]-Ifenprodil to the non-polyamine-sensitive site. After the incubation, the bounded bodies and the free bodies were separated by Whatman GF/C filter paper (Whatman Inc.) and the filter paper was washed four times with 2.5 mL of the ice-cooled buffer solution. The filter paper was immersed in a liquid scintillation (Clear-Sol I, Nacalai Tesque Co., Ltd.) in a vial and the radioactivity (dpm) was measured by a liquid scintillation counter. The binding inhibition ratio (%) was calculated from the measured values according to the following equation and the dose for inhibiting 50% binding (IC50) was calculated.
as §2

NR1/NR2C receptor = NR1/NR2C receptor (Mus musculus, UniProt P35438+Q01098); assay: Electric physiological experiment: NMDA-induced inward current in Xenopus laevis oocytes expressing NMDA receptor subunits; format: cell-based; details: NMDA 100 μM and glycine 10 μM, -60 mV
Chain of NR1/NR2C receptor (Q01098 20-1239, other chains not shown): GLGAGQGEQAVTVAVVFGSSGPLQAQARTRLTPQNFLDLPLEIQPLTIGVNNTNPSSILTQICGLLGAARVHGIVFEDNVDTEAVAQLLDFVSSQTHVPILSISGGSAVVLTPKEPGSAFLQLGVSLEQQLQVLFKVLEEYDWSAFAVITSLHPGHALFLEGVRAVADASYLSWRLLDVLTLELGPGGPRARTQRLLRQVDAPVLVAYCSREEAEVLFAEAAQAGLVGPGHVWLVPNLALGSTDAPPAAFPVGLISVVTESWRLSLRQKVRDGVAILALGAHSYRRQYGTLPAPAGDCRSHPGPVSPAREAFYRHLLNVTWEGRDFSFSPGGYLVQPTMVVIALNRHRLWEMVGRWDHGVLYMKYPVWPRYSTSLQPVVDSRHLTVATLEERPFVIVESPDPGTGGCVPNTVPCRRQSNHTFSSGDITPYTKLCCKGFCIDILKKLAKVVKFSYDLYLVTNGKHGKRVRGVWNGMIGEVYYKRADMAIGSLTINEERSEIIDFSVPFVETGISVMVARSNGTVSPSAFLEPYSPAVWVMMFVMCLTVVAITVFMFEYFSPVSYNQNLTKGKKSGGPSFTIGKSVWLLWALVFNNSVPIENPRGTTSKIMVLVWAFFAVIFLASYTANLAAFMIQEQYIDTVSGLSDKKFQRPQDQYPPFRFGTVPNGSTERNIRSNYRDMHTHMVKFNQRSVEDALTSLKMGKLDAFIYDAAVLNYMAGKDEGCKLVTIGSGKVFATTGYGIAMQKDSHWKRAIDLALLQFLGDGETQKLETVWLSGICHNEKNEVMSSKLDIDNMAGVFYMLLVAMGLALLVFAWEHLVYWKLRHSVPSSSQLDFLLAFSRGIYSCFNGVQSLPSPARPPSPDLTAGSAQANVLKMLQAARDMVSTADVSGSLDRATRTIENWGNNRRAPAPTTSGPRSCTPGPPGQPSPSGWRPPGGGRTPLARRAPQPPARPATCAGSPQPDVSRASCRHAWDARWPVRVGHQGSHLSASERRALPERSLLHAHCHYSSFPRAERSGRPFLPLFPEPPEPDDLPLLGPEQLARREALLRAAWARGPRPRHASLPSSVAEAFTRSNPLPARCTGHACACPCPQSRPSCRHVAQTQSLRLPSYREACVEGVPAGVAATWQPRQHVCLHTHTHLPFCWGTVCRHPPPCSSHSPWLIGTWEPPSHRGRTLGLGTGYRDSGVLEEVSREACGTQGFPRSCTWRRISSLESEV
Method: (§3) Expression and Electric Physiological Experiment of NMDA Receptor
(§4) Messenger RNA (mRNA) was transcribed with complementary DNA (cDNA) of mouse NMDA receptor subunits and the mRNA was injected in oocytes of Xenopus Laevis. From two days after the injection, the inward current induced by NMDA was recorded by two electrode membrane potential fixation apparatus. The injection amount of the mRNA was 0.6/0.6 ng on the basis of NR1/NR2B per one oocyte to co-expression of the subunits. Solutions of the test compound (18) with different concentrations were added to the oocytes and the inward current induced by NMDA was recorded by two electrode membrane potential fixation apparatus. The extercellular solution was Mg^2+-free ND96 (NaCl 96 mM, KCl 2 mM, CaCl2 1.8 mM, and Hepes 5 mM and pH=7.5) and the potential was retained at −60 mV. The NMDA current was induced by using NMDA 100 μM and glycine 10 μM. The measured values of the recorded inward current induced by NMDA were substituted in the following equation to calculate the electric response % and the dose for inhibiting 50% (IC50) were calculated. The IC50 values for the respective NR1/NR2A, C, and D receptors were calculated. Electric response (%)=(inward current induced by NMDA in the presence of the test compound/inward current induced by NMDA in the absence of the test compound)×100

NR1/NR2B receptor [2] = target: NR1/NR2B receptor (Mus musculus, UniProt P35438+Q01097); assay: as above; format: cell-based
Chain of NR1/NR2B receptor (Mus musculus, UniProt P35438+Q01097) (Q01097 27-1482, other chains not shown): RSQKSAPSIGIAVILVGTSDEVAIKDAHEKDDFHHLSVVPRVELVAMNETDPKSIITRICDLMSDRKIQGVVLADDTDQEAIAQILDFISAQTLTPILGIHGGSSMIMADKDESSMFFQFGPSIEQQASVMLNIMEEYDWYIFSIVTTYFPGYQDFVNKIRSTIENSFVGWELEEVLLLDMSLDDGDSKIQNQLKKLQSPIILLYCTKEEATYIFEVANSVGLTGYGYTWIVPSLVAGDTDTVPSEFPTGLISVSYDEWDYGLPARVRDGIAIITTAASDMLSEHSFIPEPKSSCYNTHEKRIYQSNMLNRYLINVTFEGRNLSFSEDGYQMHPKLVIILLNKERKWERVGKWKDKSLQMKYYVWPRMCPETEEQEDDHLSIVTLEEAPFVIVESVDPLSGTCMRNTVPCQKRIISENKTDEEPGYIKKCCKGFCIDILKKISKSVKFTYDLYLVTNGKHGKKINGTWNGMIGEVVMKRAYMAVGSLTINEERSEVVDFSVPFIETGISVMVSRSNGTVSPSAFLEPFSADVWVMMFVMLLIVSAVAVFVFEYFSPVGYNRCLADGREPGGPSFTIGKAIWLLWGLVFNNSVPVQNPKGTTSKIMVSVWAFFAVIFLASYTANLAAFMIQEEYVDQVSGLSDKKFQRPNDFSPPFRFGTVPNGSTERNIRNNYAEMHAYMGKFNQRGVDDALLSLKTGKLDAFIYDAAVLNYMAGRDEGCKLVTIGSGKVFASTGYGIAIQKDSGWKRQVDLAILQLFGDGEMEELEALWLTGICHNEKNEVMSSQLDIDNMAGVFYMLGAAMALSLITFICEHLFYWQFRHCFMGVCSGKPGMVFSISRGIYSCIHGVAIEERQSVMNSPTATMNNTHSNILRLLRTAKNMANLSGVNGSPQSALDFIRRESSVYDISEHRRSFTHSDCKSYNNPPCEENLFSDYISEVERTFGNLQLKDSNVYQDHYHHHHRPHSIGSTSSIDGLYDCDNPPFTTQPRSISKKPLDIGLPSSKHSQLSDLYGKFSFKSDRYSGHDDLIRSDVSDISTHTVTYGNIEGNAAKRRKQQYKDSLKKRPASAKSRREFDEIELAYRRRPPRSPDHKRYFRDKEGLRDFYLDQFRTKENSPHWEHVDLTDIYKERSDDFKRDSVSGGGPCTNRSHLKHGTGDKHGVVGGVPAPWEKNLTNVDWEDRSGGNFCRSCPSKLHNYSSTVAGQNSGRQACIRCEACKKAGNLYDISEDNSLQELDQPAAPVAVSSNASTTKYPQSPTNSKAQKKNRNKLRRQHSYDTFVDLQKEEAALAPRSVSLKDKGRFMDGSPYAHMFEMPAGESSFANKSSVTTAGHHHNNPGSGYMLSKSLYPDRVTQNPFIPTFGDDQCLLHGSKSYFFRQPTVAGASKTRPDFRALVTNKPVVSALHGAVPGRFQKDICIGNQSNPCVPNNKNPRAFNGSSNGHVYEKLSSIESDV
Method: as §3, §4

NR1/NR2A receptor = NR1/NR2A receptor (Mus musculus, UniProt P35436+P35438); assay: as above; format: cell-based; details: NMDA 100 μM and glycine 10 μM, -60 mV
Method: as §3, §4

NR1/NR2D receptor = NR1/NR2D receptor (Mus musculus, UniProt P35438+Q03391); assay: as above; format: cell-based; details: NMDA 100 μM and glycine 10 μM, -60 mV
Method: as §3, §4

ICR type male mice = assay: Analgesic effect in mouse formalin test; format: in vivo; details: for ED50: Mus musculus, injected into the vein 5 minutes before 2% formalin
Method: Analgesic Effect in Mouse Formalin Test
The pain behavior attributed to formalin can be classified into two time-dependent phases and mice show pain behaviors, so-called licking and biting. In the first phase, acute pain was caused within 5 minutes immediately after formalin administration, and in the second phase, inflammatory pain was caused for 20 minutes from 10 to 30 minutes after the administration. ICR type male mice (5-week old) were used for the experiment. Formalin (2%) was subcutaneously injected to the right hind paw of the mice. The test compound (18) was dissolved in a solution, DMSO:HCO50:saline=1.5:1:7.5 and injected in difference concentrations into the vein 5 minutes before the formalin administration. The pain behavior time was measured for 30 minutes after formalin administration. The pain behavior time is to be shortened in the case the test compound causes analgesic effect. The measured time is substituted in the following equation to calculate the analgesic ratio (%) and the dose for 50% efficacy (ED50) was calculated. Analgesic ratio (%)=[…]

Compound | IC50 (PCP receptor) | competition with MK-801 at the PCP receptor (in words) (PCP receptor) | IC50 (NR1/NR2B receptor [1]) | also measured
CC(C(O)c1ccc(O)cc1)N1CCC(O)(c2ccccc2)CC1 (racemic) [CP-101606, reference compound] | 13 µM |  |  | 
O=C(CCCN1CCC(O)(Cc2ccc(OC(F)(F)F)cc2)CC1)c1ccc(O)cc1 [Compound 10] | 20 µM | not competitive with MK-801 | 0.016 µM | 
Cc1ccccc1CC1=CCN(CCCC(=O)c2ccc(O)cc2)CC1 [Compound 18] | 3 µM | not competitive with MK-801 | 0.004 µM | IC50 (NR1/NR2C receptor): > 30 µM; antagonistic effect on NR1/NR2 subfamilies (in words) (NR1/NR2B receptor [2]): specific antagonistic effect on the NR1/NR2B receptor; IC50 (NR1/NR2B receptor [2]; NMDA 100 μM and glycine 10 μM, -60 mV, Xenopus oocytes): 4.6 µM; IC50 (NR1/NR2A receptor): > 30 µM; IC50 (NR1/NR2D receptor): > 30 µM; ED50 (ICR type male mice; acute pain within 5 minutes, read-out: ED50, the first phase): 1.1 mg/kg; ED50 (ICR type male mice; inflammatory pain 10 to 30 minutes, read-out: ED50, the second phase): 0.7 mg/kg; analgesic effect (in words) (ICR type male mice; mouse, in vivo): confirmed
O=C(CCCN1CC=C(Cc2ccc(F)cc2)CC1)c1ccc(O)cc1 [Compound 19] | 10 µM | not competitive with MK-801 | 0.002 µM | 
O=C(CCCN1CC=C(c2ccc(Cl)cc2)CC1)c1ccc(O)cc1 [Compound 32] |  |  | 0.003 µM | 
